Results on 23 substances are retold here after patent publication US10105437B2, “Epitopes related to coeliac disease” (BTG International Limited, priority 2004, dated 2018).

This experiment has as its system PBMC from HLA-DQ2+ coeliac subjects. As to the kind of experiment: Interferon gamma ELISPOT, second round wheat gliadin and glutenin 16mer library. In kind it is cell-based, human. The following applies: 16mers pre-treated with transglutaminase, 18 or 28 subjects; for subjects with >70% of maximal peptide-specific response: normalized to individual's maximal response. An excerpt:
12mer peptides were then identified in which each potential deamidation site could be in position 4, 6 or 7 in the 9mer located within HLA-DQ2 binding groove (HLA-DQ2 anchors at these positions show a preference for glutamate). Candidate 12mer core epitope sequences were then flanked with glycine followed by the N-terminal residue present in the parent gliadin polypeptide and at the C-terminal by the C-terminal residue present in the parent gliadin polypeptide followed by glycine (i.e. GXXXXXXXQXXXXXXG (SEQ ID NO: 1936)). […]
IFNγ ELISpot assays (Mabtech, Sweden) were performed in 96-well plates (MAIP S-45, Millipore) in which each well contained 25 mcl of peptide solution and 100 mcl of PBMC (2-8×10^5/well) in RPMI containing 10% heat inactivated human AB serum. After development and drying, IFNγ ELISpot plates were assessed using the MAIP automated ELISpot plate counter. Data was then analysed according to a novel algorithm (Expectation Maximization: EM) to define and quantify interferon-gamma responses to 9mer sequences contained within the peptide library (see FIG. 3 and below). 9mer peptides were then rationalised according to an algorithm that assumes redundancy in T-cell recognition, the “IterativeCluster” algorithm (see FIG. 4 and below), by allowing groups of amino acids with similar chemical properties at any one position in the 9mer, or for glutamate to replace glutamine at any position (assuming deamidation may have occurred).
All 2nd round 16mer peptides were assessed in at least 18 subjects. […] All 16mers identified for the second round Oxford library also fulfilled the selection criteria for the Melbourne second round library.
The second round peptide library data was analysed according to the “dominance” of peptide responses in the interferon gamma ELISPOT in individual subjects i.e. the percent response of an individual's PBMC to a specific peptide normalized against that individual's maximal peptide-induced response. Sequences of peptides that stimulated at least 40% of the maximal peptide-specific response in at least one subject are shown in Table 1 below. The dataset supports the consistency and “dominance” of peptides conforming to the sequences identified using the first round 20mer peptide library using the Expectation Maximization (EM) algorithm described above.

As to “G-MQVDPSGQVQWPQQ-G: wheat 16mer, second round library (GIQVDPSGQVQWPQQG; Description of Artificial Sequence: Synthetic gluten peptide)”, the “subjects with 10-40% of maximal peptide-specific response” value is “Nil”, the “subjects with 40-70% of maximal peptide-specific response” value is listed as “Nil”, the “subjects with <10% of maximal peptide-specific response” value is 17/18 and the “subjects with >70% of maximal peptide-specific response” value was 1/18.
For “LQTLPSMCNVYIPPYC [wheat 16mer, second round library]”, the “subjects with 10-40% of maximal peptide-specific response” value was “Nil”, the “subjects with 40-70% of maximal peptide-specific response” value is “Nil”, the “subjects with <10% of maximal peptide-specific response” value was 17/18 and the “subjects with >70% of maximal peptide-specific response” value was “Nil”.
Turning to “G-FPQLQQPQQPFPQQ-G: wheat 16mer, second round library (GFPQTQQPQQPFPQQG; Description of Artificial Sequence: Synthetic gluten peptide)”, the “subjects with 10-40% of maximal peptide-specific response” value is listed as 1/28, the “subjects with 40-70% of maximal peptide-specific response” value is on record as “Nil”, the “subjects with <10% of maximal peptide-specific response” value is 26/28 and the “subjects with >70% of maximal peptide-specific response” value is 1/28.
On to “G-FFPQPQQQFPQPQQ-G: wheat 16mer, second round library (GFPQQPQQQFPQPQQG; Description of Artificial Sequence: Synthetic gluten peptide)”, for which the “subjects with 10-40% of maximal peptide-specific response” value is 10/28, the “subjects with 40-70% of maximal peptide-specific response” value is reported as 1/28, the “subjects with <10% of maximal peptide-specific response” value was 17/28 and the “subjects with >70% of maximal peptide-specific response” value is listed as “Nil”.
Regarding “G-LQPFPQPQLPYLQP-G: wheat 16mer, second round library (GLQPFPQPQLPYLQPG; Description of Artificial Sequence: Synthetic gluten peptide)”, the “subjects with 10-40% of maximal peptide-specific response” value is given as 12/28, the “subjects with 40-70% of maximal peptide-specific response” value was 1/28, the “subjects with <10% of maximal peptide-specific response” value is on record as 14/28 and the “subjects with >70% of maximal peptide-specific response” value is 1/28.
Turning to “G-QQPFPQPQQPIPVQ-G: wheat 16mer, second round library”, the “subjects with 10-40% of maximal peptide-specific response” value was 7/28, the “subjects with 40-70% of maximal peptide-specific response” value is listed as 5/28, the “subjects with <10% of maximal peptide-specific response” value was 8/28 and the “subjects with >70% of maximal peptide-specific response” value is 8/28.
In the case of “G-QVSFQQPQQQYPSP-G: wheat 16mer, second round library”, the “subjects with 10-40% of maximal peptide-specific response” value is reported as 4/28, the “subjects with 40-70% of maximal peptide-specific response” value was 2/28, the “subjects with <10% of maximal peptide-specific response” value was 22/28 and the “subjects with >70% of maximal peptide-specific response” value is reported as “Nil”.
Regarding “G-QQPFPQPQQPFSQQ-G: wheat 16mer, second round library”, the “subjects with 10-40% of maximal peptide-specific response” value is listed as 8/28, the “subjects with 40-70% of maximal peptide-specific response” value is recorded as 7/28, the “subjects with <10% of maximal peptide-specific response” value is on record as 9/28 and the “subjects with >70% of maximal peptide-specific response” value was 4/28.
On the same counts, the results for “QGQQGYYPTSPQQPPQ [wheat 16mer, second round library]” are “Nil”, 1/18, “Nil” and “Nil”.
“G-QQPQQQPQQPFPQQ-G: wheat 16mer, second round library”: the “subjects with 10-40% of maximal peptide-specific response” value is reported as 5/28, the “subjects with 40-70% of maximal peptide-specific response” value is 1/28, the “subjects with <10% of maximal peptide-specific response” value is 22/28 and the “subjects with >70% of maximal peptide-specific response” value is reported as “Nil”.
On the same counts, the results for “PGQGQSGYYPTSPQQS [wheat 16mer, second round library]” are “Nil”, 1/18, 16/18 and 1/18.
For the substance “QGQPGYYPTSPQQIGQ [wheat 16mer, second round library]”, the “subjects with 10-40% of maximal peptide-specific response” value is 1/18, the “subjects with 40-70% of maximal peptide-specific response” value was 1/18, the “subjects with <10% of maximal peptide-specific response” value is given as 15/18 and the “subjects with >70% of maximal peptide-specific response” value is 1/18.
With “QGQQGYYPISPQQSGQ [wheat 16mer, second round library]”, the “subjects with 10-40% of maximal peptide-specific response” value is listed as 1/18, the “subjects with 40-70% of maximal peptide-specific response” value is given as 1/18, the “subjects with <10% of maximal peptide-specific response” value is on record as 15/18 and the “subjects with >70% of maximal peptide-specific response” value is recorded as 1/18.
Turning to “G-QQPQFSQQQQIPVI-G: wheat 16mer, second round library (PFPQPQQPFPW; Description of Artificial Sequence: Synthetic gluten peptide)”, the “subjects with 10-40% of maximal peptide-specific response” value is “Nil”, the “subjects with 40-70% of maximal peptide-specific response” value is 1/28, the “subjects with <10% of maximal peptide-specific response” value is recorded as 17/18 and the “subjects with >70% of maximal peptide-specific response” value was “Nil”.
In the case of “G-QLPYPQPQLPYPQP-G: wheat 16mer, second round library (GQLPYPQPQLPYPQPG; Description of Artificial Sequence: Synthetic gluten peptide)”, the “subjects with 10-40% of maximal peptide-specific response” value is recorded as 3/28, the “subjects with 40-70% of maximal peptide-specific response” value is recorded as 4/28, the “subjects with <10% of maximal peptide-specific response” value is given as 3/28 and the “subjects with >70% of maximal peptide-specific response” value is 18/28.
Turning to “G-LQPFPQPQLSYSQP-G: wheat 16mer, second round library (GLQPFPQPQLSYSQPG; Description of Artificial Sequence: Synthetic gluten peptide)”, the “subjects with 10-40% of maximal peptide-specific response” value is listed as 2/28, the “subjects with 40-70% of maximal peptide-specific response” value is recorded as 1/28, the “subjects with <10% of maximal peptide-specific response” value is given as 25/28 and the “subjects with >70% of maximal peptide-specific response” value is on record as “Nil”.
On the same counts, the results for “G-QPFPWQPQQPFPQQ-G: wheat 16mer, second round library (GQPTPIQPQQPFPQQG; Description of Artificial Sequence: Synthetic gluten peptide)” are 8/28, 2/28, 18/28 and “Nil”.
On the same counts, the results for “G-QQQFSQPQQQFPQP-G: wheat 16mer, second round library” are 7/28, 5/28, 16/28 and “Nil”.
As to “VAHAIIMHQQQQQQQE [wheat 16mer, second round library]”, the “subjects with 10-40% of maximal peptide-specific response” value is given as 2/28, the “subjects with 40-70% of maximal peptide-specific response” value is given as 1/28, the “subjects with <10% of maximal peptide-specific response” value is 25/28 and the “subjects with >70% of maximal peptide-specific response” value is given as “Nil”.
Consider “G-LQPFPQPQLPYSQP-G: wheat 16mer, second round library (GLQPFPQPQLPYSQPG; Description of Artificial Sequence: Synthetic gluten peptide)”, for which the “subjects with 10-40% of maximal peptide-specific response” value is listed as 12/28, the “subjects with 40-70% of maximal peptide-specific response” value is on record as 3/28, the “subjects with <10% of maximal peptide-specific response” value is reported as 11/28 and the “subjects with >70% of maximal peptide-specific response” value is 2/28.
On the same counts, the results for “IIMQQEQQEQRQGVQI [wheat 16mer, second round library]” are 8/28, “Nil”, 19/28 and 1/28.
On to “LQQQCSPVAMPQRLAR [wheat 16mer, second round library]”, for which the “subjects with 10-40% of maximal peptide-specific response” value is reported as 11/28, the “subjects with 40-70% of maximal peptide-specific response” value is 1/28, the “subjects with <10% of maximal peptide-specific response” value is given as 15/28 and the “subjects with >70% of maximal peptide-specific response” value is recorded as 1/28.
In the case of “VPLYRTTTSVPFGVGT [wheat 16mer, second round library]”, the “subjects with 10-40% of maximal peptide-specific response” value was “Nil”, the “subjects with 40-70% of maximal peptide-specific response” value is “Nil”, the “subjects with <10% of maximal peptide-specific response” value was 17/18 and the “subjects with >70% of maximal peptide-specific response” value is “Nil”.
